Assay results as given in BindingDB's records for doi:10.1002/cmdc.200500008 (Philipps-Universität Marburg, 2006).

Experiments:
Cathepsin D = Cathepsin D (Homo sapiens, UniProt P07339); test: Enzymatic Assay; conditions: pH 5.5
Gag-Pol polyprotein = Gag-Pol polyprotein (Human immunodeficiency virus type 1 group M subtype B (isolate BRU/LAI), UniProt P03367); test: Enzymatic Assay; conditions: pH 5.5
Method: Binding constants for inhibition of HIV protease were determined as previously described.

Sequence of Cathepsin D (P07339 65-162 limits assumed): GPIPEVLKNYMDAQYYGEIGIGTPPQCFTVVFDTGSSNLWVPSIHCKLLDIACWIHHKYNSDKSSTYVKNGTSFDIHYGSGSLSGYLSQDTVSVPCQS
Sequence of Cathepsin D (P07339 169-412 limits assumed): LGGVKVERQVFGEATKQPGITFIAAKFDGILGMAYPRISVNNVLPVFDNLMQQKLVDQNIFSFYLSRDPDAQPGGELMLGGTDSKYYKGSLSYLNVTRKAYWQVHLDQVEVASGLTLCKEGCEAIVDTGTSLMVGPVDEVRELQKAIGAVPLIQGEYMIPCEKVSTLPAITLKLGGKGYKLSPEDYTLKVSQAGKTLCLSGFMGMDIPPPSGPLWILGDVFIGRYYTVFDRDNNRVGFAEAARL

Compound: Cc1ccc(S(=O)(=O)N(CC(C)C)C[C@@H]2CNCC2CN(Cc2ccccc2)C(=O)COc2c(C)cccc2C)cc1 (stereo not given in full) [Aspartyl protease inhibitor, 15]
- IC50 (Cathepsin D): > 40 µM
- IC50 (Gag-Pol polyprotein): 12.1 µM

Compound: Cc1cccc(C)c1OCC(=O)N(Cc1ccccc1)CC1CNC[C@H]1CN(CC(C)C)S(=O)(=O)c1ccc(N)cc1 (stereo not given in full) [Aspartyl protease inhibitor, 14]
- IC50 (Cathepsin D): > 40 µM
- IC50 (Gag-Pol polyprotein): 3.3 µM

Compound: COc1cc(Br)c(OC(=O)N(Cc2ccccc2)CC2CNC[C@H]2CN(CCc2ccc(Cl)cc2Cl)C(=O)CCN2C(=O)c3ccccc3C2=O)cc1OC (stereo not given in full) [Aspartyl protease inhibitor, 17]
- IC50 (Cathepsin D): 0.57 µM
- IC50 (Gag-Pol polyprotein): 22.1 µM

Compound: COc1cc(Br)c(OC(=O)N(Cc2ccccc2)CC2CNC[C@H]2CN(CCc2ccc(Cl)cc2Cl)C(=O)CCCc2ccccc2)cc1OC (stereo not given in full) [Aspartyl protease inhibitor, 16]
- IC50 (Cathepsin D): 1.05 µM
- IC50 (Gag-Pol polyprotein): 19.8 µM

Compound: Cc1cccc(C)c1OCC(=O)N(Cc1ccccc1)CC1CNC[C@H]1CN(CC(C)C)S(=O)(=O)c1ccccc1 (stereo not given in full) [Aspartyl protease inhibitor, 13]
- IC50 (Cathepsin D): > 40 µM
- IC50 (Gag-Pol polyprotein): 2.2 µM
